“Also recorded” adds a separate entry of the source.
Experiments:
[1] = system: cancer cells; conditions: previous studies (1-3), also in cancer cells in which p53 protein was absent; cited from earlier work
[2] = system: MiaPaCa-2 cells; assay: Incubation of MiaPaCa-2 cells with peptides; cell counts by trypan blue exclusion, MTT; type: cell-based, human
Protocol: Duplicate sets of 6×10^6 MiaPaCa-2 cells were incubated with different concentrations of PNC-28, i.e., 5, 10, 20, 40, 80 and 160 μmol/ml. […] All incubations were carried out using a protocol identical to that described in ref. 1 (1). After the cells had been allowed to adhere to the tissue culture dish (TCD) for 24 hours the medium was removed from each TCD, and new medium containing the same or no peptide concentration was added. Medium from each TCD was removed every 24 h, and fresh medium with its respective peptide at the appropriate concentration was added. Cells were inspected daily for changes in cell growth, morphology, and viability. At the end of each day over a five-day period, duplicate cell counts were performed for each incubation using the trypan blue exclusion method. In addition, cell viability was also determined by 3-[4,5-dimethylthiazol-2-yl]-2,5 diphenyl tetrazolium bromide (MTT) assay according to the manufacturers' instructions (Promega Corporation, Madison, Wis., USA).

[3] = system: MiaPaCa-2 cells; assay: LDH release into cell culture medium (CytoTox96) as marker for necrosis; type: cell-based, human
Protocol: (§1) Cells from culture plates at 18, 44, 66 and 90 h time points were lysed in situ in cell lysis buffer [1% Triton X-100 in 0.05 M Tris-HCl (pH 8.0), […], 0.02% Na azide, 0.1 mg/ml phenylmethylsulfonylfluoride (PMSF), and 0.001 mg/ml Aprotinin]. Lysates were subjected to 10% SDS-PAGE followed by electrotransfer to nitrocellulose and immunoblotting with antibodies to GFP and p53 (Santa Cruz Biotechnology, Santa Cruz, Calif.). Antibody-labeled proteins were identified by chemiluminescence using ECL methodology (Amersham)(1). Assays for elevated caspase expression were performed using the Clontech (Palo Alto, Calif.) for caspase (CPP32) activity (2). As a positive control for the caspase activity assay, Mia-PaCa-2 cells were incubated with tumor necrosis factor (TNF) (Sigma, St. Louis, Mo.) at a concentration of 10 ng/ml for 24 h. In addition, to detect if significant cell necrosis occurred, the CytoTox96 assay was used (Promega, Madison, Wis.) for LDH released into the cell culture medium as performed on several breast cancer cell lines (2).

[4] = system: MiaPaCa-2 cells; assay: Caspase (CPP32) activity assay as marker for apoptosis; type: cell-based, human
Protocol: as §1

[5] = system: MiaPaCa-2 cells; assay: Time-lapse electron microscopy of MiaPaCa-2 cells treated with PNC-28; type: cell-based, human; conditions: 25 μmol/ml, 15 min, FIG. 4B
Protocol: Time-lapse electron microscopy (EM) was used to examine the ultrastructural features of cell death. MiaPaCa-2 cells were grown for 24 h on Thermanox cover slips (Lux Scientific), and then treated with 25 μmol of PNC-28 for 1 and 15 min, along with a corresponding control group without peptide. The cells were washed with PBS solution and then fixed with 2.5% gluteraldehyde-PBS. The fixed cultures were rinsed in a 0.1 M phosphate buffer (pH 7.3), post fixed in 2% (0.08 m) osmium tetroxide-PBS (pH 7.3), dehydrated in a graded series of ethanol and propylene oxide and embedded in Epon 812. Sections were cut at 700 Å, stained with uranyl acetate and lead citrate and examined with a Jeol JEM 1010 Electron Microscope.

[6] = system: MiaPaCa-2 cells; assay: Immunoblotting of MiaPaCa-2 cell lysates for p53 and waf^p21, with caspase activity; type: cell-based, human; conditions: at near 100 percent cell death: 96 hr transfected cells, 48 hr PNC-28 75 μmol/ml, FIG. 6
Protocol: For protein analyses, and detection of apoptosis, 2×10^6 cells were seeded into 10 cm diameter TCDs and transfected with DNA: Lipofectamine 2000 proportionally adjusted to the increased area. When the cell density reached 90-100%, the cells of the experimental and sham-transfected group were detached using trypsin and plated into four new TCD's in which they were allowed to grow in complete medium. At defined time points cells were released from adherence with 10 mM EDTA in PBS and were lysed in lysing buffer [1% Triton X-100 in 0.05 M Tris-HCl (pH 8.0), […], 0.02% Na azide, 0.01 mg/ml phenylmethylsulfonylfluoride (PMSF), and 0.001 mg/ml Aprotinin]. Protein equivalents of 10^6 cells, i.e., ˜30 μg/lane, were then subjected to SDS-PAGE using 10% Tris-HCl gels and, in some experiments, 16% Tricine Peptide Gels (Biorad, Hercules, Calif.) to detect PNC-28 (−3104 Da) and p53 17-26 (−1500 Da). […] Semi-quantitation of immunoblotting results was performed by measuring luminosity of bands in a single scanned developed x-ray film, using the histogram option of Adobe Photoshop 5.5. […] Opacity of each band was calculated by the equation, Opacity=255-Luminosity-background (15). […]

[7] = all doses over the 20-75 μmol/ml range, FIG. 4D

For “PPLSQETFSDLWKLLKKWKMRRNQFWVKVQRG (PNC-27)”, the “mode of tumor cell death” value [1] is given as “induced tumor cell necrosis, not apoptosis”.

In the case of ETFSDLWKLLKKWKMRRNQFWVKVQRG (PNC-28), the “time to cell death” value ([2]; 20 μmol/ml) is reported as 1 week, the cell death ([2]; 20 μmol/ml, 48 h, FIG. 2) is reported as “roughly 35%” and the “time to similar (near total) cell death” value ([2]; 40 μmol/ml) is reported as 4 days. For the same compound, the cell morphology ([2]; 75 μmol/ml, 24 h, FIG. 1B) was “appear necrotic”, the “cell death as measured by trypan blue dye uptake” value ([2]; 75 μmol/ml, 48 h) was about 100% and the “time to near total cell death” value ([2]; 80 μmol/ml) was 48 h. For the same compound, the cell death ([2]; 80 μmol/ml, 48 h, FIG. 2) was “over 80%”, the cell death ([2]; doses between 20 and 75 μmol/ml, time decreasing with dose) was about 100% and the LDH activity ([3]; 25 μmol/ml, 24 h, FIG. 4A) was “almost to the same extent as cells that were lysed with lysis buffer; also recorded: high levels of LDH”. For the same compound, the LDH ([3]; 25 umol/ml, 24 h, FIG. 4D) was “approximately 0.235 OD”, the LDH ([3]; 50 umol/ml, 24 h, FIG. 4D) was “approximately 0.44 OD” and the LDH ([3]; 75 umol/ml, 24 h, FIG. 4D) was “approximately 0.35 OD”. For the same compound, the LDH release [3, 7] was “early release of LDH”, the caspase level ([4]; 25 μmol/ml, 24 h, FIG. 4C) was “only baseline levels” and the caspase ([4]; 25 umol/ml, 24 h, FIG. 4D) was “approximately 0.03”. For the same compound, the caspase ([4]; 50 umol/ml, 24 h, FIG. 4D) was “approximately 0.02”, the caspase ([4]; 75 umol/ml, 24 h, FIG. 4D) was “approximately 0.015” and the caspase level [4, 7] was “only background levels of caspase”. For the same compound, the “plasma membrane integrity in electron micrographs” value [5] was “exhibit lysis of their plasma membranes”, the “levels of p53, waf^p21 and caspase activity” value [6] was “not observed” and the “mode of tumor cell death” value [1] was “induced tumor cell necrosis, not apoptosis”.

With TNF-α [reference compound] the “caspase 3 activity, positive control” value ([4]; 10 ng/ml, 24 h, FIG. 4C condition 1) was “Maximal caspase release”.

With `CC[C@H](C)[C@H](NC(=O)[C@H](CCCNC(=N)N)NC(=O)[C@H](CCCCN)NC(=O)CNC(=O)[C@@H](NC(=O)[C@H](CO)NC(=O)[C@H](Cc1ccccc1)NC(=O)[C@@H]1CCCN1C(=O)[C@@H](N)CCSC)[C@@H](C)O)C(=O)N[C@@H](CCSC)C(=O)N[C@@H](CC(C)C)C(=O)NCC(=O)N[C@@H](CCC(=O)O)C(=O)N[C@@H](CCCCN)C(=O)N[C@@H](CCCCN)C(=O)N[C@@H](Cc1c[nH]c2ccccc12)C(=O)N[C@@H](CCCCN)C(=O)N[C@@H](CCSC)C(=O)N[C@@H](CCCNC(=N)N)C(=O)N[C@@H](CCCNC(=N)N)C(=O)N[C@@H](CC(N)=O)C(=O)N[C@@H](CCC(N)=O)C(=O)N[C@@H](Cc1ccccc1)C(=O)N[C@@H](Cc1c[nH]c2ccccc12)C(=O)N[C@H](C(=O)N[C@@H](CCCCN)C(=O)N[C@H](C(=O)N[C@@H](CCC(N)=O)C(=O)N[C@@H](CCCNC(=N)N)C(=O)NCC(=O)O)C(C)C)C(C)C` [PNC-29, reference compound] the “cytotoxicity, number of remaining cells versus untreated” value ([2]; 75 μmol/ml, 48 h, FIG. 3) was “no effect on cell growth”.
